One may read the pEC50 as −log10 of the EC50, conventionally taken in molar units. What is called pIC50 is the negative decadic logarithm of the IC50, by convention in mol/L. A high value points to a small IC50.

The record followed here is US20260242391A1 (priority 2023, published 2026).

pEC50, pIC50: −log10 of the molar value. Like-named read-outs stand apart in the source and are kept apart here.

The subject of series [1] is MDS-L cells. The experiment in a line: CFU assays with MDS-L cells. It counts as cell-based.
The test system of series [2] is MDS-L cells. The series is described as follows: Loss of CD71 in MDS-L cells. Type of series: cell-based.
The test system of series [3] is MDS-L cells. The note with it: human.
Protocol: MDS-L differentiation assay.
(§1) MDS-L were cultured in RPMI (17-105-CV, Corning) without phenol red and supplemented with 2 mM glutamine and 10% FBS. Cells first expanded in IL-3 until 70% confluence then pre-conditioned for 14 days with IL-3 (200-03, PeproTech), GCSF (300-23, PeproTech), and EPO (287-TC, R&D Systems) to promote erythroid and myeloid differentiation. A density of 10,000 cells per well were used in phenotypic assays. MDSL cells were spun and treatment media was replaced with media containing APC Anti-CD235a (GlyA) (551336, BD Biosciences) (1.25 μL per 50 L test) and incubated for 1 hour at 4° C. Cells were washed then counter stained with SYTOX-Green 1 M per 100 L prior to flow cytometry analysis. Dose response and pharmacological assays were analyzed using a ZE5 Cell Analyzer (BioRad) equipped with Everest software. Single, live, cells were analyzed for GlyA expression using FlowJo v10.7.2 software.
The subject of series [4] is MDS-L cells.
In series [5] the test system is MDS-L cells. The series is described as follows: cells. The conditions noted are these: read-out: MDS-L GlyA induction EC50.
Protocol: MDS-L differentiation assay.
as §1
For series [6], the system named is HL-60. The experiment in a line: HL-60 differentiation potency. The conditions noted are these: Homo sapiens. Type of series: cell-based.
For series [7], the system named is HL-60.
Series [8] concerns HL-60. The series is described as follows: HL-60 differentiation potency. It counts as cell-based. The note with it: Homo sapiens. The source holds these as a separate data set.
Series [9] deals with HL-60. This is another data set of the same source.
Series [10] has as its system MDS-L cells. The series is described as follows: Labile heme levels of MDS-L cells. It counts as cell-based. The conditions noted are these: over relevant time periods (FIG. 4B).

Regarding `CCO[C@H]1O[C@@H]2O[C@@]3(C)CC[C@H]4[C@H](C)CC[C@@H]([C@H]1C)[C@@]24OO3` [Arteether, arteether], the “Terminal differentiation of MDS-L cells to CFU-Es while decreasing BFU-E, CFU-GM and CFU-GEMM type colonies” value in the series with MDS-L cells [1] was “efficaciously induced terminal differentiation”. Also, in the series with MDS-L cells [2], the “Loss of CD71” value was “efficaciously promoted the loss of CD71”. The “Maximal MDS-L GlyA fold induction” value in the series with MDS-L cells [3] came to 3.82 fold. The Induction in apoptosis entry in the series with MDS-L cells [4] is listed as “no significant induction”. For the same compound, in the series on MDS-L cells [5], the pEC50 is 6.24.

Turning to `C[C@H]1[C@H](OC(=O)CCC(=O)O)O[C@@H]2O[C@@]3(C)CC[C@H]4[C@H](C)CC[C@@H]1[C@@]24OO3` [Artesunate, artesunate], the “Maximal MDS-L GlyA fold induction” value in the series with MDS-L cells [3] amounted to 7.51 fold. For the same compound, in the series with MDS-L cells [5], the pEC50 is 6.07.

`C[C@H]1[C@H](Oc2cc(F)c(CC(=O)O)c(F)c2)O[C@@H]2O[C@@]3(C)CC[C@H]4[C@H](C)CC[C@@H]1[C@@]24OO3` [Compound 14, 2-(2,6-difluoro-4-(((3R,5aS,6R, 8aS,9R,10R,12R, 12aR)-3,6,9-trimethyldeca-hydro-12H-3,12-epoxy[1,2]dioxepino[4,3-i]isochromen-10-yl)oxy)phenyl) acetic acid] had a negative-log EC50 (pEC50) with HL-60 [6] of 7.04. This compound showed a pIC50 with HL-60 [7] of 4.70.

Take `C[C@H]1[C@@H](Oc2cc(F)c(CC(=O)O)c(F)c2)O[C@@H]2O[C@@]3(C)CC[C@H]4[C@H](C)CC[C@@H]1[C@@]24OO3` [Compound 22, 2-(2,6-difluoro-4-(((3R,5aS,6R, 8aS,9R,10S,12R, 12aR)-3,6,9-trimethyldeca-hydro-12H-3,12-epoxy[1,2]dioxepino[4,3-i]isochromen-10-yl)oxy)phenyl) acetic acid]: the pEC50 in the series with HL-60 [6] was 6.88. In the series on HL-60 [7], this compound showed a pIC50 of 4.70.

As to `C[C@H]1[C@@H](Oc2ccc(C(=O)C(=O)O)cc2)O[C@@H]2O[C@@]3(C)CC[C@H]4[C@H](C)CC[C@@H]1[C@@]24OO3` [Compound 128, 2-oxo-2-(4-(((3R,5aS,6R,8aS, 9R,10S,12R, 12aR)-3,6,9-trimethyldeca-hydro-12H-3,12-epoxy[1,2]dioxepino[4,3-i]isochromen-10-yl)oxy)phenyl) acetic acid], the pEC50 in the series on HL-60 [6] was 5.91. This compound also had a pIC50 in the series on HL-60 [7] of 4.70.

Compound `C[C@H]1[C@H](OC2CCc3cc(C(=O)O)ccc32)O[C@@H]2O[C@@]3(C)CC[C@H]4[C@H](C)CC[C@@H]1[C@@]24OO3` (stereo partly drawn) [Compound 225, 1-(((3R,5aS,6R,8aS, 9R,10R,12R, 12aR)-3,6,9-trimethyldeca-hydro-12H-3,12-epoxy[1,2]dioxepino[4,3-i]isochromen-10-yl)oxy)-2,3-dihydro-1H-indene-5-carboxylic acid] gave a pEC50 in the series on HL-60 [8] of 6.69. The compound also showed a pIC50 in the series on HL-60 [9] of 4.70.

In the series with HL-60 [8], `C[C@H]1[C@@H](OC[C@H]2CC[C@@H](C(=O)N[C@H]3CC[C@@H](C(=O)O)C3)CC2)O[C@@H]2O[C@@]3(C)CC[C@H]4[C@H](C)CC[C@@H]1[C@@]24OO3` [Compound 267, (1R,3S)-3-((1R,4R)-4-((((3R,5aS,6R,8aS, 9R,10S,12R, 12aR)-3,6,9-trimethyldeca-hydro-12H-3,12-epoxy[1,2]dioxepino[4,3-i]isochromen-10-yl)oxy)methyl)cyclohexane-1-carboxamido) cyclopentane-1-carboxylic acid] gave a pEC50 of 6.81. In the series with HL-60 [9], this compound had a pIC50 of 4.70.

`CC(C)[C@H](NC(=O)Cc1ccc(O[C@H]2O[C@@H]3O[C@@]4(C)CC[C@H]5[C@H](C)CC[C@@H]([C@H]2C)[C@@]35OO4)cc1)C(=O)O` [Compound 302, (2-(4-(((3R,5aS,6R,8aS, 9R,10S,12R, 12aR)-3,6,9-trimethyldeca-hydro-12H-3,12-epoxy[1,2]dioxepino[4,3-i]isochromen-10-yl)oxy)phenyl)acetyl)-L-valine] showed a pEC50 in the series on HL-60 [8] of 7.79. In addition, the pIC50 with HL-60 [9] was 4.70.

Take `C[C@H]1[C@@H](O)O[C@@H]2O[C@@]3(C)CC[C@H]4[C@H](C)CC[C@@H]1[C@@]24OO3` [Dihydroartemisin, dihydro- artemisinin]: the “Maximal MDS-L GlyA fold induction” value in the series on MDS-L cells [3] is on record as 7.09 fold. Also, the pEC50 with MDS-L cells [5] is 6.21.

`C[C@H]1[C@H](N2CCS(=O)(=O)CC2)O[C@@H]2O[C@@]3(C)CC[C@H]4[C@H](C)CC[C@@H]1[C@@]24OO3` [artemisone]: the “Terminal differentiation of MDS-L cells to CFU-Es while decreasing BFU-E, CFU-GM and CFU-GEMM type colonies” value in the series on MDS-L cells [1] is “efficaciously induced terminal differentiation”. The “Loss of CD71” value in the series with MDS-L cells [2] was “efficaciously promoted the loss of CD71”. In addition, the “Levels of labile heme in MDS-L cells” value in the series on MDS-L cells [10] was “efficiently reduced”. Moreover, in the series with MDS-L cells [3], the “Maximal MDS-L GlyA fold induction” value stood at 6.84 fold. For the same compound, the Induction in apoptosis entry with MDS-L cells [4] was “no significant induction”. The pEC50 in the series on MDS-L cells [5] was 6.82.
